# Laboratory results published in PubChem BioAssay AID1963845 (Molecular Pharmacology Branch, DTP, NCI, 2024).
# Test system: 429239-143-T-J1-PDC complex spheroid viability
# Experiment: Anticancer human tumor 429239-143-T-J1-PDC patient-derived small cell lung carcinoma cell line growth inhibition [POLQ]
# Settings: for IC50: curve of first compound; for viability, T/C: stronger effect = lower value
# Experimental: Multicellular complex tumor spheroid response to Polymerase (POL) inhibitors (novobiocin, ART-558, RP6685) in combination with a variety of drugs and investigational agents in selected tumor cell lines
# The POL inhibitors (novobiocin, ART-558, and RP6685) were evaluated both individually and in combination with standard of care and investigational anticancer small molecules within a complex spheroid model of solid tumors. . Complex spheroids include a stromal component modeled by human endothelial cells (HUVEC) and fibroblasts modeled by human mesenchymal stem cells (MSCs). The concentration ranges selected for each drug and investigational agent were based upon clinically achievable concentrations if the clinical Cmax of the agent was known.
# Compounds. The drugs and investigational agents: novobiocin (NSC847541), ART-558 (NSC835418), RP-6685 (NSC848927), peposertib (NSC802822), ceralasertib (NSC780249), elimusertib (NSC800525), camonsertib (NSC841442), AZD-1390 (NSC803789), olaparib (NSC753686), talazoparib (NSC767125), rucaparib (NSC756644), sotorasib (NSC818433), MRTX-1133 (NSC836407), SN-38 (NSC673596), topotecan (NSC609699), epotoside (NSC141540), doxorubicin (NSC123127), gemcitabine (NSC613327), 5-fluorouracil (NSC19893), paclitaxel (NSC125973), vemurafenib (NSC761431), MSA-2 (NSC828583), SN-011 (NSC837082), adavosertib (NSC754352), prexasertib (NSC758257), carboplatin (NSC241240) and oxaliplatin (NSC266046), were obtained from the National Cancer Institute (NCI) Developmental Therapeutics Program Chemical Repository (21). The FDA-approved anticancer drug set is available from the Developmental Therapeutics Program at https://dtp.cancer.gov/organization/dscb/obtaining/. […] The stock solutions were prepared in dimethyl sulfoxide (DMSO, Sigma-Aldrich, St. Louis, MO, cat. D2650), except for the platinum compounds which were prepared in saline (Quality Biological, Gaithersburg, MD, cat. 114-055-101), at 800-fold the tested concentration and stored at -70 degrees C prior to their use. All drugs and investigational agents were tested over a range starting from a high concentration at or near the clinical Cmax and decreasing in half-log increments. If the clinical Cmax for an agent had not been determined, the highest concentration tested was 10 microM, except for SN-38, which was tested at a high concentration of 1 microM.
# Cell Culture. All cells were maintained in an incubator at 37 degrees C and 5% CO2 with 95% humidity. The PDC lines were cultured according to standard operating procedures established by the NCI PDMR (https://pdmr.cancer.gov). Table 3 of the manuscript, lists the cell lines along with the number of the three cell types plated to form the mct-spheroids and media for tumor cell growth. After thawing, all PDC lines, except 997537-175-T-J1-PDC and 415267-285-R-J2-PDC, were cultured in Matrigel-coated flasks prepared with a working solution of 1X Ham's F-12 nutrient mix, without supplementation (Thermo Fisher Scientific, cat. 11765054), 100 U/mL penicillin-streptomycin (Thermo Fisher Scientific, cat. 15140122), and 2.5% Matrigel (Corning Inc., Corning, NY, cat. 354248) for the first three passages. The two PDC lines 997537-175-T-J1-PDC and 415267-285-R-J2-PDC were cultured on uncoated flasks. The 857933-349-R-J2-PDC line was cultured in 6C/Colon 1B media containing advanced DMEM/F-12 (Thermo Fisher Scientific, cat. 12634028), 10 mM HEPES (Thermo Fisher Scientific, cat. 15630080), 1X GlutaMAX supplement (Thermo Fisher Scientific, cat. 35050061), 0.1 mg/mL primocin (InvivoGen, San Diego, CA, cat. ant-pm-2), 10% defined fetal bovine serum, heat inactivated (HyClone Laboratories Inc., Logan, UT, cat. SH30070.03HI), 50% L-WRN conditioned media (ATCC, cat. CRL-3276), 1.25 mM N-Acetyl-L-cysteine (Sigma-Aldrich, cat. A9165), 10 mM nicotinamide (Sigma-Aldrich, cat. N0636), 1X B-27 supplement (Thermo Fisher Scientific, cat. 17504044), 1X N-2 supplement (Thermo Fisher Scientific, cat. […]
# [1] = second compound 0.0316 µM, first compound 0.0316 µM
# [2] = second compound 0.0316 µM, first compound 0.1 µM
# [3] = second compound 0.0316 µM, first compound 0.316 µM
# [4] = second compound 0.0316 µM, first compound 1 µM
# [5] = second compound 0.0316 µM, first compound 3.16 µM
# [6] = second compound 0.0316 µM, first compound 10 µM
# [7] = second compound 0.1 µM, first compound 0.0316 µM
# [8] = second compound 0.1 µM, first compound 0.1 µM
# [9] = second compound 0.1 µM, first compound 0.316 µM
# [10] = second compound 0.1 µM, first compound 1 µM
# [11] = second compound 0.1 µM, first compound 3.16 µM
# [12] = second compound 0.1 µM, first compound 10 µM
# [13] = second compound 0.316 µM, first compound 0.0316 µM
# [14] = second compound 0.316 µM, first compound 0.1 µM
# [15] = second compound 0.316 µM, first compound 0.316 µM
# [16] = second compound 0.316 µM, first compound 1 µM
# [17] = second compound 0.316 µM, first compound 3.16 µM
# [18] = second compound 0.316 µM, first compound 10 µM
# [19] = second compound 1 µM, first compound 0.0316 µM
# [20] = second compound 1 µM, first compound 0.1 µM
# [21] = second compound 1 µM, first compound 0.316 µM
# [22] = second compound 1 µM, first compound 1 µM
# [23] = second compound 1 µM, first compound 3.16 µM
# [24] = second compound 1 µM, first compound 10 µM
# [25] = second compound 3.16 µM, first compound 0.0316 µM
# [26] = second compound 3.16 µM, first compound 0.1 µM
# [27] = second compound 3.16 µM, first compound 0.316 µM
# [28] = second compound 3.16 µM, first compound 1 µM
# [29] = second compound 3.16 µM, first compound 3.16 µM
# [30] = second compound 3.16 µM, first compound 10 µM
# [31] = second compound 10 µM, first compound 0.0316 µM
# [32] = second compound 10 µM, first compound 0.1 µM
# [33] = second compound 10 µM, first compound 0.316 µM
# [34] = second compound 10 µM, first compound 1 µM
# [35] = second compound 10 µM, first compound 3.16 µM
# [36] = second compound 10 µM, first compound 10 µM
# 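Also: luminescence signal used as surrogate measure of viable cells; spheroids exposed to compounds for seven days before readout.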
# 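For viability, T/C in this document: 100% = DMSO vehicle control viability as luminescence relative to vehicle.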
smiles,measurement,setting,value
Nc1ccn(C2OC(CO)C(O)C2(F)F)c(=O)n1 (centres undefined) + COC1C(OC(N)=O)C(O)C(Oc2ccc3c(O)c(NC(=O)c4ccc(O)c(CC=C(C)C)c4)c(=O)oc3c2C)OC1(C)C,IC50,second compound 0.0316 µM,< 0.0316 µM
same,IC50,second compound 0.1 µM,< 0.0316 µM
same,IC50,second compound 0.316 µM,< 0.0316 µM
same,IC50,second compound 1 µM,< 0.0316 µM
same,IC50,second compound 3.16 µM,< 0.0316 µM
same,IC50,second compound 10 µM,< 0.0316 µM
same,"viability, T/C",[1],23.4%
same,"viability, T/C",[2],19.2%
same,"viability, T/C",[3],19.7%
same,"viability, T/C",[4],16.5%
same,"viability, T/C",[5],17.5%
same,"viability, T/C",[6],16.4%
same,"viability, T/C",[7],15.1%
same,"viability, T/C",[8],17.8%
same,"viability, T/C",[9],18.2%
same,"viability, T/C",[10],17.4%
same,"viability, T/C",[11],17.3%
same,"viability, T/C",[12],16.1%
same,"viability, T/C",[13],22.2%
same,"viability, T/C",[14],17.1%
same,"viability, T/C",[15],16.7%
same,"viability, T/C",[16],18.4%
same,"viability, T/C",[17],16.9%
same,"viability, T/C",[18],14.8%
same,"viability, T/C",[19],17.4%
same,"viability, T/C",[20],17.4%
same,"viability, T/C",[21],17.8%
same,"viability, T/C",[22],16.1%
same,"viability, T/C",[23],18.4%
same,"viability, T/C",[24],21%
same,"viability, T/C",[25],14.9%
same,"viability, T/C",[26],13.9%
same,"viability, T/C",[27],19.1%
same,"viability, T/C",[28],12.5%
same,"viability, T/C",[29],16.3%
same,"viability, T/C",[30],13.5%
same,"viability, T/C",[31],14.5%
same,"viability, T/C",[32],16.9%
same,"viability, T/C",[33],17.5%
same,"viability, T/C",[34],20.4%
same,"viability, T/C",[35],17%
same,"viability, T/C",[36],17.1%
O=c1[nH]cc(F)c(=O)[nH]1 + COC1C(OC(N)=O)C(O)C(Oc2ccc3c(O)c(NC(=O)c4ccc(O)c(CC=C(C)C)c4)c(=O)oc3c2C)OC1(C)C,IC50,second compound 0.0316 µM,9.58 µM
same,IC50,second compound 0.1 µM,7.31 µM
same,IC50,second compound 0.316 µM,6.05 µM
same,IC50,second compound 1 µM,9.05 µM
same,IC50,second compound 3.16 µM,7.96 µM
same,IC50,second compound 10 µM,6.66 µM
same,"viability, T/C",[1],114%
same,"viability, T/C",[2],111%
same,"viability, T/C",[3],108%
same,"viability, T/C",[4],84.5%
same,"viability, T/C",[5],61.6%
same,"viability, T/C",[6],49%
same,"viability, T/C",[7],116%
same,"viability, T/C",[8],111%
same,"viability, T/C",[9],105%
same,"viability, T/C",[10],96.1%
same,"viability, T/C",[11],57%
same,"viability, T/C",[12],47.6%
same,"viability, T/C",[13],96.7%
same,"viability, T/C",[14],98%
same,"viability, T/C",[15],97%
same,"viability, T/C",[16],78.1%
same,"viability, T/C",[17],62.9%
same,"viability, T/C",[18],40.9%
same,"viability, T/C",[19],86.1%
same,"viability, T/C",[20],104%
same,"viability, T/C",[21],96.4%
same,"viability, T/C",[22],82.3%
same,"viability, T/C",[23],70.5%
same,"viability, T/C",[24],47.9%
same,"viability, T/C",[25],99.2%
same,"viability, T/C",[26],98.8%
same,"viability, T/C",[27],93%
same,"viability, T/C",[28],84.1%
same,"viability, T/C",[29],75.9%
same,"viability, T/C",[30],43.4%
same,"viability, T/C",[31],89%
same,"viability, T/C",[32],97.6%
same,"viability, T/C",[33],93.8%
same,"viability, T/C",[34],85.4%
same,"viability, T/C",[35],57.7%
same,"viability, T/C",[36],45.8%
